Data taken from paper PMC3438169 (PLoS ONE, 2012).
*1 amine or outer side, *2 acyl side, *3 side chain or, on linkers, in order; H or OH if unused. Where a SMILES comes first, the peptide text is derived from it. [ ]: non-standard residue; d: D form. dAla(ψthiazole) = C[C@@H](N[*:1])c1nc(C(=O)[*:2])cs1; Trp(4-OMe) = COc1cccc2[nH]cc(C[C@H](N)C(=O)O)c12; dAbu = CC[C@@H](N)C(=O)O; Dha = C=C(N)C(=O)O; Sar = CNCC(=O)O

What was measured:
EF-G1 S459F = biological target: T1, EF-G1 S459F (Pseudomonas aeruginosa, UniProt Q9HWD2, S459F); experiment: Surface plasmon resonance (SPR), EF-G1 S459F; format: binding, P. aeruginosa; conditions: Biacore, data not shown
T1 construct: P. aeroginosa fusA1 encoding full-length EF-G was PCR amplified from pET28a-PaEFG-Nhis; made in house; host or cells: E. coli BL21 (DE3)
T1 sequence (Q9HWD2 whole entry S459F): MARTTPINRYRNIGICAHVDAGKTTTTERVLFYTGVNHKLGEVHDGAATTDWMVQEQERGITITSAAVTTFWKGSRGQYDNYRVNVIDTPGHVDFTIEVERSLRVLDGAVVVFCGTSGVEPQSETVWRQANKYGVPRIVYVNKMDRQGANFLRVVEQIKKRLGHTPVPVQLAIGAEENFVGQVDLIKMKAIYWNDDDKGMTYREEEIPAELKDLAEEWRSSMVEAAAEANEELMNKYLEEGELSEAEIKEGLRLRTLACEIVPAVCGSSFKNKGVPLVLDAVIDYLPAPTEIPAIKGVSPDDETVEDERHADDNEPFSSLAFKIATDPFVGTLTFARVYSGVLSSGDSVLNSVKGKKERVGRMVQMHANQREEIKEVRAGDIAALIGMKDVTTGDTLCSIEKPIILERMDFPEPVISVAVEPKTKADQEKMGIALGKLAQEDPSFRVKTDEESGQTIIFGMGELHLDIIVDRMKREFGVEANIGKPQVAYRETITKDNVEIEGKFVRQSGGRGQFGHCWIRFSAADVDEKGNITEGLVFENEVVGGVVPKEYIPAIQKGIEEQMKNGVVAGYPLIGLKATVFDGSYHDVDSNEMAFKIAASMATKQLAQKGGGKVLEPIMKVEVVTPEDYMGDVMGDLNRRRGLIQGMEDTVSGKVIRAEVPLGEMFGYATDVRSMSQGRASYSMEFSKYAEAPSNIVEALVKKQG
Source text: For wild type P. aeruginosa EF-G1 expression, the fusA gene was amplified from genomic DNA of P. aeruginosa PAO1 K767 using the primer pair EFG-F/EFG-R: […]/[…]. The product was digested with NdeI and HindIII and ligated into similarly digested pET28a to generate pET28a-PaEFG-Nhis. This plasmid was then used for site directed mutagenesis to introduce the nucleotide change encoding EF-G1S459F (pET28a-PaEFGS459F-Nhis). The plasmids were then transformed into an E. coli strain BL21 (DE3) for expression. A single colony was used to inoculate 10 ml LB broth containing 50 µg/ml kanamycin which was incubated at 37°C overnight, with shaking at 250 rpm. The overnight culture was then diluted 100-fold into 1 liter fresh LB broth containing 50 µg/ml kanamycin. After growing at 37°C with vigorous shaking for about 2.5 hours, expression of P. aeruginosa EF-G1 or EF-G1S459F was then induced by adding 0.1 mM IPTG, with further culture incubation at 18°C for 24 hours. Cells were then pelleted by centrifugation at 5,000 rpm with Sorvall SLC-6000 rotor and stored at −20°C. Cell pellets were then resuspended in 20 ml of BugBuster solution (Novagen) and incubated at room temperature for 20 minutes. […] The protein in the fractions was monitored by UV absorbance at 280 nm. […] Protein concentration was determined by Nano-drop spectrophotometer. […]

[1] = test system: recombinant human mEF-G1 L693Q; experiment: Biacore binding, human mEF-G1 L693Q; conditions: 10, 20, 40 µM, HBS-P+ pH 7.4, 4% DMSO
Source text: (§1) GFM1 encoding the active site of EF-G1 (residues 36–751) was PCR amplified from pDONR221 constructs using primers (GGGGACAAGTTTGTACAAAAAAGCAGGCTTAATGTCTTCATCAGGGGTGATT, GGGGACCACTTTGTACAAGAAAGCTGGGTATTAGTTCTTGGCTTTTCC). P. aeroginosa fusA1 encoding full-length EF-G was PCR amplified from pET28a-PaEFG-Nhis using primers (GGGGACCACTTTGTACAAGAAAGCTGGGTATTATCAACCTTGTTTTTT, GGGGACAAGTTTGTACAAAAAAGCAGGCTTAATGGCCCGTACTACACCC). Purified PCR products were cloned into the pDONR221 vector using Gateway cloning and BP Clonase II (Invitrogen), shuttled into an E.coli protein expression vector for N-terminal tagging (Avitag-His6 vector) using LR Clonase II (Invitrogen), and verified by sequencing. Avitag-His6-hEF-G1 and Avitag-His6-PaEF-G constructs were transformed into BL21-AI cells (Invitrogen) and isolated single colonies were used to inoculate 5 ml cultures which were grown overnight at 37°C with shaking. […]. Briefly, protein was captured on column using binding buffer (50 mM Tris; pH 7.5, 300 mM NaCl, 20 mM imidazole, 10% glycerol), washed extensively with washing buffer (50 mM Tris; pH 7.5, 500 mM NaCl, 30 mM imidazole, 10% glycerol), and then eluted with elution buffer (50 mM Tris; pH 7.5, 500 mM NaCl, 250 mM imidazole, 10% glycerol). […]

[2] = test system: recombinant human mEF-G1 S452L; experiment: Biacore binding, human mEF-G1 S452L; conditions: 10, 20, 40 µM, HBS-P+ pH 7.4, 4% DMSO
Source text: as §1

C=C1NC(=O)CN(C)C(=O)CNC(=O)[C@H](Cc2c[nH]c3cccc(OC)c23)NC(=O)[C@H](Cc2c[nH]c3ccccc23)NC(=O)c2csc(n2)[C@@H](C)NC(=O)[C@@H](CC)NC1=O [argyrin B] (cyclo([dAbu][dAla(ψthiazole)]W[Trp(4-OMe)]G[Sar][Dha]))
Binding by SPR (in words) (EF-G1 S459F): failed to bind argyrin B sufficiently to generate a Kd value | Binding to human mEF-G1 (in words) [1]: little binding detected | Binding to human mEF-G1 (in words) [2]: still bound
